Laboratory results: patent US20230126893A1, “[(1,4,5-TRISUBSTITUTED-1H-PYRAZOL-3-YL)SULFANYL]ACETIC ACID DERIVATIVES, SALTS THEREOF, AND USE THEREOF AS ACTIVE HERBICIDAL INGREDIENTS” (BAYER AKTIENGESELLSCHAFT, priority 2020, published 2023)

What was measured:
Format in all cases: in vivo
[1] = test system: Bassia scoparia; assay: Pre-emergence herbicidal effect against KCHSC; settings: 1280 g/ha, visual score after 3 weeks, 100% = plants have died, 0% = like control plants
Description: (§1) 1. Pre-emergence herbicidal effect and crop plant compatibility Seeds of monocotyledonous and dicotyledonous weed plants and crop plants are laid out in sandy loam soil in wood-fibre pots and covered with soil. The compounds of the invention, formulated in the form of wettable powders (WP) or as emulsion concentrates (EC), are then applied to the surface of the covering soil as aqueous suspension or emulsion at a water application rate equating to 600 to 800 L/ha with addition of 0.2% wetting agent. After the treatment, the pots are placed in a greenhouse and kept under good growth conditions for the trial plants. The damage to the test plants is scored visually after a test period of 3 weeks by comparison with untreated controls (herbicidal activity in percent (%): 100% activity=the plants have died, 0% activity=like control plants). [table]

[2] = test system: Setaria viridis; assay: Pre-emergence herbicidal effect against SETVI; settings: 1280 g/ha, visual score after 3 weeks, 100% = plants have died, 0% = like control plants
How it was run: (§2)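 Visual rating against untreated controls after 3 weeks in greenhouse, from 0% (no difference) to 100% (dead plants). Compound, as WP or EC with 0.2% wetting agent in 600 to 800 L/ha water, applied to covering soil over seeds sown in sandy loam.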

[3] = test system: Poa annua; assay: Post-emergence herbicidal effect against POAAN; settings: 1280 g/ha, visual assessment about 3 weeks after treatment, 100% = plants have died, 0% = like control plants
How it was run: (§3)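 Activity scored visually as percent damage relative to untreated plants (100% = dead) roughly 3 weeks post-spray. Plants at the one-leaf stage, 2–3 weeks old in sandy loam under greenhouse conditions, received WP/EC formulations in 600–800 l/ha water plus 0.2% wetting agent.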

[4] = test system: Tripleurospermum inodorum; assay: Post-emergence herbicidal effect against MATIN; settings: 1280 g/ha, visual assessment about 3 weeks after treatment, 100% = plants have died, 0% = like control plants
How it was run: as §3

[5] = test system: Stellaria media; assay: Pre-emergence herbicidal effect against STEME; settings: 1280 g/ha, visual score after 3 weeks, 100% = plants have died, 0% = like control plants
How it was run: as §2

[6] = test system: Echinochloa crus-galli; assay: Pre-emergence herbicidal effect against ECHCG; settings: 1280 g/ha, visual score after 3 weeks, 100% = plants have died, 0% = like control plants
How it was run: as §2

[7] = test system: Stellaria media; assay: Post-emergence herbicidal effect against STEME; settings: 1280 g/ha, visual assessment about 3 weeks after treatment, 100% = plants have died, 0% = like control plants
How it was run: as §3

[8] = test system: Veronica persica; assay: Pre-emergence herbicidal effect against VERPE; settings: 1280 g/ha, visual score after 3 weeks, 100% = plants have died, 0% = like control plants
How it was run: as §2

[9] = test system: Veronica persica; assay: Post-emergence herbicidal effect against VERPE; settings: 1280 g/ha, visual assessment about 3 weeks after treatment, 100% = plants have died, 0% = like control plants
How it was run: as §3

[10] = test system: Setaria viridis; assay: Post-emergence herbicidal effect against SETVI; settings: 1280 g/ha, visual assessment about 3 weeks after treatment, 100% = plants have died, 0% = like control plants
How it was run: as §3

[11] = test system: Lolium rigidum; assay: Pre-emergence herbicidal effect against LOLRI; settings: 1280 g/ha, visual score after 3 weeks, 100% = plants have died, 0% = like control plants
How it was run: as §2

[12] = test system: Echinochloa crus-galli; assay: Post-emergence herbicidal effect against ECHCG; settings: 1280 g/ha, visual score after about 3 weeks, 100% = plants have died, 0% = like control plants
How it was run: as §3

[13] = test system: Digitaria sanguinalis; assay: Pre-emergence herbicidal effect against DIGSA; settings: 1280 g/ha, visual score after 3 weeks, 100% = plants have died, 0% = like control plants
How it was run: as §2

[14] = test system: Alopecurus myosuroides; assay: Pre-emergence herbicidal effect against ALOMY; settings: 1280 g/ha, visual score after 3 weeks, 100% = plants have died, 0% = like control plants
How it was run: as §2

[15] = test system: Bassia scoparia; assay: Post-emergence herbicidal effect against KCHSC; settings: 1280 g/ha, visual assessment about 3 weeks after treatment, 100% = plants have died, 0% = like control plants
How it was run: as §3

[16] = test system: Tripleurospermum inodorum; assay: Pre-emergence herbicidal effect against MATIN; settings: 1280 g/ha, visual score after 3 weeks, 100% = plants have died, 0% = like control plants
How it was run: as §2

[17] = test system: Poa annua; assay: Pre-emergence herbicidal effect against POAAN; settings: 1280 g/ha, visual score after 3 weeks, 100% = plants have died, 0% = like control plants
How it was run: as §2

[18] = test system: Alopecurus myosuroides; assay: Post-emergence herbicidal effect against ALOMY; settings: 1280 g/ha, visual score after about 3 weeks, 100% = plants have died, 0% = like control plants
How it was run: as §3

[19] = test system: Digitaria sanguinalis; assay: Post-emergence herbicidal effect against DIGSA; settings: 1280 g/ha, visual score after about 3 weeks, 100% = plants have died, 0% = like control plants
How it was run: as §3

[20] = test system: Abutylon threophrasti; assay: Post-emergence herbicidal effect against ABUTH; settings: 1280 g/ha, visual assessment about 3 weeks after treatment, 100% = plants have died, 0% = like control plants
How it was run: as §3

[21] = test system: Abutylon threophrasti; assay: Pre-emergence herbicidal effect against ABUTH; settings: 1280 g/ha, visual score after 3 weeks, 100% = plants have died, 0% = like control plants
Description: as §1

| Compound | Pre-emergence action against KCHSC [1] [%] | Pre-emergence action against SETVI [2] [%] | Post-emergence action against POAAN [3] [%] | Post-emergence action against MATIN [4] [%] | Pre-emergence action against STEME [5] [%] | Pre-emergence action against ECHCG [6] [%] | Post-emergence action against STEME [7] [%] | Pre-emergence action against VERPE [8] [%] | Post-emergence action against VERPE [9] [%] | Post-emergence action against SETVI [10] [%] | Pre-emergence action against LOLRI [11] [%] | Post-emergence action against ECHCG [12] [%] | Pre-emergence action against DIGSA [13] [%] | Pre-emergence action against ALOMY [14] [%] | Post-emergence action against KCHSC [15] [%] | Pre-emergence action against MATIN [16] [%] | Pre-emergence action against POAAN [17] [%] | Post-emergence action against ALOMY [18] [%] | Post-emergence action against DIGSA [19] [%] | Post-emergence action against ABUTH [20] [%] | other results |
| --- | --- | --- | --- | --- | --- | --- | --- | --- | --- | --- | --- | --- | --- | --- | --- | --- | --- | --- | --- | --- | --- |
| COC(=O)CN(C)C(=O)CSc1nn(-c2ccccc2F)c(-c2ccc(F)c(F)c2)c1Cl [VII-002] | 90 | 100 | 100 | 90 | 100 | 100 | 90 | 90 | 90 | 90 | – | – | – | – | – | – | – | – | – | – | – |
| CCOC(=O)CSc1nn(-c2ccc(F)cc2F)c(-c2ccc(F)cc2)c1Br [Example I-016] | 100 | 100 | 90 | 90 | 100 | 100 | 90 | 100 | 90 | – | 90 | 90 | 100 | 90 | 90 | 100 | 100 | 100 | 90 | – | – |
| CCOC(=O)CSc1nn(-c2ccc(F)cc2)c(-c2ccc(F)cc2)c1Br [Example I-019] | 100 | 100 | 100 | 100 | 90 | 100 | 90 | 100 | 100 | 90 | – | – | 100 | 90 | 100 | 100 | 100 | 100 | 100 | 100 | Pre-emergence action against ABUTH [21]: 90% |
| COC(=O)CNC(=O)CSc1nn(-c2ccccc2F)c(-c2cncc(F)c2)c1Br [VII-009] | – | 100 | 100 | 90 | 100 | 90 | 100 | 100 | 90 | 90 | 100 | 90 | – | 90 | 90 | 100 | 100 | 90 | – | 90 | Pre-emergence action against ABUTH [21]: 90% |
